Experimental data from PubChem BioAssay (NCI).
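Cells were grown in 96-well plates and exposed to each compound for 48 hours at five concentrations; endpoints were interpolated linearly between bracketing concentrations, or set to the highest concentration if not reached. The concentration for 50% growth inhibition is given as GI50. TGI: total growth inhibition.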

Assays:
Assay in all cases: NCI-60 cell line screen, 48 h
[1] = tested on: SK-MEL-28 melanoma
[2] = tested on: EKVX NSCLC
[3] = tested on: HOP-92 NSCLC
[4] = tested on: SR leukemia
[5] = tested on: SK-MEL-5 melanoma
[6] = tested on: CCRF-CEM leukemia
[7] = tested on: RXF 393 renal
[8] = tested on: TK-10 renal
[9] = tested on: SK-MEL-2 melanoma
[10] = tested on: LOX IMVI melanoma

Compound	GI50 [1]	TGI [1]	GI50 [2]	TGI [2]	GI50 [3]	TGI [3]	GI50 [4]	TGI [4]	GI50 [5]	TGI [5]	GI50 [6]	TGI [6]	GI50 [7]	TGI [7]	GI50 [8]	TGI [8]	GI50 [9]	TGI [9]	GI50 [10]	TGI [10]
CCN1CCN(c2cc(C)nc(NCc3cc(Nc4ccnc5cc(Cl)ccc45)ccc3F)n2)CC1	1.84 µM	3.71 µM	5.45 µM	> 100 µM	2.58 µM	19.4 µM	2.14 µM	9.3 µM	1.55 µM	2.99 µM	2.55 µM	> 100 µM	1.86 µM	4.19 µM	18.8 µM	45.4 µM	2.53 µM	6.52 µM	1.74 µM	3.6 µM
O=C1C(Nc2cccc(O)c2)=C(Sc2ccc(Cl)cc2)C(=O)N1Cc1ccccc1	11 µM	40.9 µM	–	–	4.73 µM	30.7 µM	3.41 µM	14.1 µM	8.44 µM	24.7 µM	4.08 µM	34.8 µM	3.9 µM	21.2 µM	16.7 µM	31.8 µM	28.3 µM	> 100 µM	8.7 µM	29.1 µM
CCN1CCN(c2nc(C)cc(N(CCCNc3ccnc4cc(Cl)ccc34)Cc3ccco3)n2)CC1	1.82 µM	3.6 µM	7.67 µM	25.3 µM	2.26 µM	6.72 µM	2.08 µM	5.73 µM	1.81 µM	3.3 µM	3.51 µM	12.2 µM	1.98 µM	4.23 µM	2.13 µM	4.9 µM	1.94 µM	3.92 µM	1.76 µM	3.75 µM
Cc1sc2c(c1C)C(c1ccc(Cl)cc1)=N[C@@H](CC(=O)Nc1ccc(O)cc1)c1nnc(C)n1-2	5.31 µM	26.4 µM	–	–	0.0423 µM	13.1 µM	0.344 µM	28.6 µM	0.472 µM	14.9 µM	0.317 µM	31.4 µM	1.79 µM	15.5 µM	0.0941 µM	19 µM	3.31 µM	22 µM	0.109 µM	6.29 µM
CC(C)c1ccc(O)c(O)c(=O)c1 (tested in a mixture with another compound)	–	23.8 µM	–	47.7 µM	–	> 83 µM	–	4.02 µM	–	8.13 µM	–	–	–	12 µM	–	9.6 µM	–	3.02 µM	–	27.2 µM
O=C1C(Cl)=C(Nc2ccc3c(c2NC2=C(Cl)C(=O)c4ccccc4C2=O)C(=O)c2ccccc2C3=O)C(=O)c2ccccc21	2.87 µM	8.61 µM	1.83 µM	4.18 µM	2.03 µM	4.95 µM	1.42 µM	> 100 µM	0.386 µM	1.47 µM	2.48 µM	24.7 µM	2.97 µM	9.79 µM	7.26 µM	22.2 µM	1.82 µM	6.33 µM	0.872 µM	10.4 µM
CN(Cc1ccccc1)c1nc(=[N+](C)C)ss1	–	> 100 µM	–	> 100 µM	–	> 100 µM	–	> 100 µM	–	> 100 µM	–	> 100 µM	–	> 100 µM	–	> 100 µM	–	> 100 µM	–	> 100 µM
CC1(C)CC(O)CCCCCCOc2c(CN)cccc2NC(=O)c2nc(cnc2N)-c2ccc(cc2)S1(=O)=O (stereo not drawn)	1.13 µM	2.48 µM	1.93 µM	5.78 µM	2.72 µM	5.82 µM	< 0.01 µM	0.469 µM	1.5 µM	2.89 µM	< 0.01 µM	5.53 µM	< 0.01 µM	1.54 µM	1.52 µM	3.86 µM	1.36 µM	3.15 µM	1.26 µM	2.88 µM
Cc1cc(Cl)ccc1Nc1nc(C(F)(F)F)ccc1C(=O)N/N=C/c1ccc(N(C)C)cc1	3.81 µM	> 100 µM	0.746 µM	> 100 µM	–	–	0.872 µM	6.79 µM	2.56 µM	> 100 µM	–	–	0.633 µM	44.4 µM	1.03 µM	> 100 µM	–	–	0.7 µM	> 100 µM
C=C(C)C1CCC2(CO)C(O)CC3(C)C(CCC4C5(C)CCC(O)C(C)(C)C5CCC43C)C12 (stereo not drawn)	–	32.5 µM	–	32.6 µM	–	25.2 µM	–	> 100 µM	–	21.3 µM	–	> 100 µM	–	9.65 µM	–	30.2 µM	–	32 µM	–	24.2 µM
CC(=O)NNc1nc(C)c(C(/C=C/c2ccc(Cl)cc2)=N/NC(=S)NN)s1	–	> 100 µM	–	> 100 µM	–	> 100 µM	–	> 100 µM	–	> 100 µM	–	> 100 µM	–	> 100 µM	–	> 100 µM	–	> 100 µM	–	> 100 µM
Cc1ccc2oc(=O)cc(C3c4ccc([nH]4)C(c4cc(=O)oc5ccc(C)cc45)c4ccc([nH]4)C(c4cc(=O)oc5ccc(C)cc45)c4ccc([nH]4)C(c4cc(=O)oc5ccc(C)cc45)c4ccc3[nH]4)c2c1 (stereo not drawn)	0.075 µM	2.98 µM	0.0632 µM	4.48 µM	0.106 µM	1.07 µM	0.0417 µM	–	0.032 µM	0.127 µM	0.0359 µM	> 100 µM	0.0254 µM	0.0774 µM	0.0519 µM	0.926 µM	0.0983 µM	1.02 µM	0.0365 µM	1.23 µM
c1cc(C2N3CCCN2CC3)ccn1 (stereo not drawn)	–	> 100 µM	–	> 100 µM	–	–	–	> 100 µM	–	> 100 µM	–	> 100 µM	–	> 100 µM	–	> 100 µM	–	> 100 µM	–	> 100 µM
COc1cc2c(cc1-c1c(C)noc1C)ncc1[nH]c(=O)n([C@H](C)c3ccccn3)c12	0.695 µM	> 90.7 µM	–	–	0.0677 µM	37.3 µM	0.0756 µM	> 100 µM	2.77 µM	> 44 µM	1.03 µM	> 100 µM	3.3 µM	> 32.1 µM	0.257 µM	22 µM	6.07 µM	77.6 µM	0.352 µM	20.3 µM
CCOC(CN(C)C(=O)OCC(Cl)(Cl)Cl)OCC	–	> 100 µM	–	> 100 µM	–	> 100 µM	–	> 100 µM	–	> 100 µM	–	> 100 µM	–	> 100 µM	–	> 100 µM	–	–	–	> 100 µM
COc1cc(CCC(=O)NS(=O)(=O)c2ccccc2)cc(OC)c1OC	–	> 100 µM	–	> 100 µM	–	> 100 µM	–	> 100 µM	–	–	–	> 100 µM	–	> 100 µM	–	> 100 µM	–	> 100 µM	–	> 100 µM
